From publication PMC7854729 (Nature Communications, 2021)
Values joined by “and” are separate entries in the source; they are usually repeats but may differ in a detail not shown here. Equal entries are not always repeated. Where two headings read alike, the source gives them in different places. Where a SMILES comes first, the peptide text is derived from it.

Legend:
SARS-CoV-2 PLpro = SARS-CoV-2 PLpro (Severe acute respiratory syndrome coronavirus 2, UniProt P0DTD1); experiment: biochemical
SARS-CoV-2 = experiment: microbe, parasite or virus in culture; assay type: cell-based, SARS-CoV-2 (nCoV/Washington/1/2020) in Vero E6 cells; conditions: for inhibition of virus replication: Vero E6, SARS-CoV-2; for Percent Spike Positive Cells: relative to DMSO treated cells, single replicates
PLpro-WT = target: T1, PLpro-WT (Severe acute respiratory syndrome coronavirus 2, UniProt P0DTD1); assay type: biochemical
T1 construct: PLpro is a domain of Nsp3—a large multidomain protein; made in house; host or cells: E. coli BL21(DE3)-Gold

## Cc1ccc(NC(=O)NC(N)=O)cc1C(=O)N[C@H](C)c1cccc2ccccc12 [Compound 2, 5-carbamylurea-2-methyl-N-[(1R)-1-naphthalen-1-ylethyl]benzamide]
SARS-CoV-2 PLpro; Log(M) -3.69897, listed as 2 (Snyder495)
  PLpro assay signal (source data Figure 2, single replicates): 60 and 59 and 86
SARS-CoV-2 PLpro; Log(M) -4, listed as 2 (Snyder495)
  PLpro assay signal (source data Figure 2, single replicates): 70 and 66 and 64
SARS-CoV-2 PLpro; Log(M) -4.39794, listed as 2 (Snyder495)
  PLpro assay signal (source data Figure 2, single replicates): 92 and 85 and 99
SARS-CoV-2 PLpro; Log(M) -4.69897, listed as 2 (Snyder495)
  PLpro assay signal (source data Figure 2, single replicates): 136 and 126 and 144
SARS-CoV-2 PLpro; Log(M) -5.09691, listed as 2 (Snyder495)
  PLpro assay signal (source data Figure 2, single replicates): 203 and 179 and 181
SARS-CoV-2 PLpro; Log(M) -5.39794, listed as 2 (Snyder495)
  PLpro assay signal (source data Figure 2, single replicates): 314 and 305 and 289
SARS-CoV-2 PLpro; Log(M) -5.79588, listed as 2 (Snyder495)
  PLpro assay signal (source data Figure 2, single replicates): 365 and 343 and 315
SARS-CoV-2 PLpro; Log(M) -6.09691, listed as 2 (Snyder495)
  PLpro assay signal (source data Figure 2, single replicates): 476 and 447 and 368
SARS-CoV-2 PLpro; Log(M) -6.49485, listed as 2 (Snyder495)
  PLpro assay signal (source data Figure 2, single replicates): 414 and 419 and 416
SARS-CoV-2 PLpro; Log(M) -6.79588, listed as 2 (Snyder495)
  PLpro assay signal (source data Figure 2, single replicates): 421 and 453 and 465
SARS-CoV-2 PLpro; pH 7.3, read-out: IC50
  IC50: 5.1 µM
SARS-CoV-2
  inhibition of virus replication: failed

## C=CC(=O)Nc1ccc(C)c(C(=O)N[C@H](C)c2cccc3ccccc23)c1 [Compound 3, 5-acrylamide-2-methyl-N-[(1R)-1-naphthalen-1-ylethyl]benzamide]
SARS-CoV-2 PLpro; Log(M) -3.69897, listed as 3 (Snyder530)
  PLpro assay signal (source data Figure 2, single replicates): 91 and 88 and 87
SARS-CoV-2 PLpro; Log(M) -4, listed as 3 (Snyder530)
  PLpro assay signal (source data Figure 2, single replicates): 107 (2×) and 106
SARS-CoV-2 PLpro; Log(M) -4.39794, listed as 3 (Snyder530)
  PLpro assay signal (source data Figure 2, single replicates): 175 (2×) and 163
SARS-CoV-2 PLpro; Log(M) -4.69897, listed as 3 (Snyder530)
  PLpro assay signal (source data Figure 2, single replicates): 282 and 274 and 281
SARS-CoV-2 PLpro; Log(M) -5.09691, listed as 3 (Snyder530)
  PLpro assay signal (source data Figure 2, single replicates): 401 and 387 and 371
SARS-CoV-2 PLpro; Log(M) -5.39794, listed as 3 (Snyder530)
  PLpro assay signal (source data Figure 2, single replicates): 551 and 511 and 480
SARS-CoV-2 PLpro; Log(M) -5.79588, listed as 3 (Snyder530)
  PLpro assay signal (source data Figure 2, single replicates): 638 and 706 and 719
SARS-CoV-2 PLpro; Log(M) -6.09691, listed as 3 (Snyder530)
  PLpro assay signal (source data Figure 2, single replicates): 726 and 781 and 797
SARS-CoV-2 PLpro; Log(M) -6.49485, listed as 3 (Snyder530)
  PLpro assay signal (source data Figure 2, single replicates): 808 and 740 and 787
SARS-CoV-2 PLpro; Log(M) -6.79588, listed as 3 (Snyder530)
  PLpro assay signal (source data Figure 2, single replicates): 765 and 796 and 803
SARS-CoV-2 PLpro; pH 7.3, read-out: IC50
  IC50: 6.4 µM
SARS-CoV-2
  inhibition of virus replication: failed

## Nc1cc(C(=O)Nc2cccc3ccccc23)cc(C(F)(F)F)c1 [Compound 4]
SARS-CoV-2 PLpro; IC50
  IC50: 43.2 ± 9.4 µM
SARS-CoV-2 PLpro; Log(M) -0.30103, listed as 4 (Snyder550)
  PLpro assay signal (source data Figure 2, single replicates): 498 and 310 and 468
SARS-CoV-2 PLpro; Log(M) -0.60206, listed as 4 (Snyder550)
  PLpro assay signal (source data Figure 2, single replicates): 426 and 463 and 490
SARS-CoV-2 PLpro; Log(M) -1, listed as 4 (Snyder550)
  PLpro assay signal (source data Figure 2, single replicates): 617 and 632 and 562
SARS-CoV-2 PLpro; Log(M) -1.30103, listed as 4 (Snyder550)
  PLpro assay signal (source data Figure 2, single replicates): 679 and 720 and 747
SARS-CoV-2 PLpro; Log(M) -1.69897, listed as 4 (Snyder550)
  PLpro assay signal (source data Figure 2, single replicates): 956 and 920 and 944
SARS-CoV-2 PLpro; Log(M) -2, listed as 4 (Snyder550)
  PLpro assay signal (source data Figure 2, single replicates): 1073 and 1048 and 930
SARS-CoV-2 PLpro; Log(M) -2.39794, listed as 4 (Snyder550)
  PLpro assay signal (source data Figure 2, single replicates): 1192 and 1138 and 1087
SARS-CoV-2 PLpro; Log(M) -2.69897, listed as 4 (Snyder550)
  PLpro assay signal (source data Figure 2, single replicates): 1318 and 1220 and 924
SARS-CoV-2 PLpro; Log(M) -3.09691, listed as 4 (Snyder550)
  PLpro assay signal (source data Figure 2, single replicates): 1177 and 1051 and 1092
SARS-CoV-2 PLpro; Log(M) -3.39794, listed as 4 (Snyder550)
  PLpro assay signal (source data Figure 2, single replicates): 1045 and 1012 and 1221
SARS-CoV-2; Severe acute respiratory syndrome coronavirus 2, Vero C1008, 24 h, read-out: EC50
  EC50: 1.7 ± 4.4 µM
SARS-CoV-2
  inhibition of virus replication: inhibiting virus replication
SARS-CoV-2; [Drug] 0.1 uM
  Percent Spike Positive Cells: 75% and 100% and 88%
SARS-CoV-2; [Drug] 1 uM
  Percent Spike Positive Cells: 88% and 81% and 63%
SARS-CoV-2; [Drug] 10 uM
  Percent Spike Positive Cells: 0%

## CC(=O)N[C@@H](CC(C)C)C(=O)N[C@@H](CCCCN)C(=O)NCC(=O)NCC(=O)Nc1ccc2c(C)cc(=O)oc2c1 [probe] (HELM PEPTIDE1{[ac].L.K.G.G.[Cc1cc(=O)oc2cc(N[*:1])ccc12]}$$$$V2.0)
PLpro-WT; 0.1 M PLP, time point 8
  fluorescence: 103 and 110 and 118
  fluorescence normalised to probe only: 2.146 and 2.292 and 2.458
PLpro-WT; 0.1 M PLP, time point 9
  fluorescence: 107 and 115 and 122
  fluorescence normalised to probe only: 2.229 and 2.396 and 2.542
PLpro-WT; 0.1 M PLP, time point 10
  fluorescence: 111 and 120 and 127
  fluorescence normalised to probe only: 2.3125 and 2.5 and 2.646
PLpro-WT; 0.1 M PLP, time point 11
  fluorescence: 115 and 124 and 132
  fluorescence normalised to probe only: 2.396 and 2.583 and 2.75
PLpro-WT; 0.1 M PLP, time point 12
  fluorescence: 115 and 129 and 133
  fluorescence normalised to probe only: 2.396 and 2.6875 and 2.771
PLpro-WT; 0.1 M PLP, time point 13
  fluorescence: 120 and 131 and 139
  fluorescence normalised to probe only: 2.5 and 2.729 and 2.896
PLpro-WT; 0.1 M PLP, time point 14
  fluorescence: 123
  fluorescence normalised to probe only: 2.5625 and 2.833 and 2.979
PLpro-WT; 0.2 M PLP, time point 8
  fluorescence: 260 and 288 and 278
  fluorescence normalised to probe only: 5.417 and 6 and 5.792
PLpro-WT; 0.2 M PLP, time point 9
  fluorescence: 295 and 313 and 300
  fluorescence normalised to probe only: 6.146 and 6.521 and 6.25
PLpro-WT; 0.2 M PLP, time point 10
  fluorescence: 321 and 335 and 319
  fluorescence normalised to probe only: 6.6875 and 6.979 and 6.646
PLpro-WT; 0.2 M PLP, time point 11
  fluorescence: 337 and 357 and 345
  fluorescence normalised to probe only: 7.021 and 7.4375 and 7.1875
PLpro-WT; 0.2 M PLP, time point 12
  fluorescence: 357 and 377 and 368
  fluorescence normalised to probe only: 7.4375 and 7.854 and 7.667
PLpro-WT; 0.2 M PLP, time point 13
  fluorescence: 379 and 400 and 381
  fluorescence normalised to probe only: 7.896 and 8.333 and 7.9375
PLpro-WT; 0.2 M PLP, time point 14
  fluorescence normalised to probe only: 8.167 and 8.792 and 8.417
PLpro-WT; 0.3 M PLP, time point 8
  fluorescence: 443 and 452 and 474
  fluorescence normalised to probe only: 9.229 and 9.417 and 9.875
PLpro-WT; 0.3 M PLP, time point 9
  fluorescence: 481 and 493 and 520
  fluorescence normalised to probe only: 10.0208 and 10.2708 and 10.8333
PLpro-WT; 0.3 M PLP, time point 10
  fluorescence: 519 and 530 and 558
  fluorescence normalised to probe only: 10.8125 and 11.0417 and 11.625
PLpro-WT; 0.3 M PLP, time point 11
  fluorescence: 560 and 573 and 600
  fluorescence normalised to probe only: 11.6667 and 11.9375 and 12.5
PLpro-WT; 0.3 M PLP, time point 12
  fluorescence: 594 and 609 and 643
  fluorescence normalised to probe only: 12.375 and 12.6875 and 13.3958
PLpro-WT; 0.3 M PLP, time point 13
  fluorescence: 632 and 646 and 681
  fluorescence normalised to probe only: 13.1667 and 13.4583 and 14.1875
PLpro-WT; 0.3 M PLP, time point 14
  fluorescence: 671 and 682 and 717
  fluorescence normalised to probe only: 13.9792 and 14.2083 and 14.9375
PLpro-WT; 0.5 M PLP, time point 8
  fluorescence: 891 and 894 and 883
  fluorescence normalised to probe only: 18.5625 and 18.625 and 18.3958
PLpro-WT; 0.5 M PLP, time point 9
  fluorescence: 972 and 978 and 964
  fluorescence normalised to probe only: 20.25 and 20.375 and 20.0833
PLpro-WT; 0.5 M PLP, time point 10
  fluorescence: 1053 and 1058 and 1040
  fluorescence normalised to probe only: 21.9375 and 22.0417 and 21.6667
PLpro-WT; 0.5 M PLP, time point 11
  fluorescence: 1137 and 1139 and 1118
  fluorescence normalised to probe only: 23.6875 and 23.7292 and 23.2917
PLpro-WT; 0.5 M PLP, time point 12
  fluorescence: 1204 and 1214 and 1189
  fluorescence normalised to probe only: 25.0833 and 25.2917 and 24.7708
PLpro-WT; 0.5 M PLP, time point 13
  fluorescence: 1275 and 1287 and 1260
  fluorescence normalised to probe only: 26.5625 and 26.8125 and 26.25
PLpro-WT; 0.5 M PLP, time point 14
  fluorescence: 1338 and 1358 and 1327
  fluorescence normalised to probe only: 27.875
PLpro-WT; 1.0 M PLP, time point 8
  fluorescence: 1812 and 1755 and 1796
  fluorescence normalised to probe only: 37.75 and 36.5625 and 37.4167
PLpro-WT; 1.0 M PLP, time point 9
  fluorescence: 1958 and 1902 and 1937
  fluorescence normalised to probe only: 40.7917 and 39.625 and 40.3542
PLpro-WT; 1.0 M PLP, time point 10
  fluorescence: 2101 and 2025 and 2064
  fluorescence normalised to probe only: 43.7708 and 42.1875 and 43
PLpro-WT; 1.0 M PLP, time point 11
  fluorescence: 2228 and 2143 and 2197
  fluorescence normalised to probe only: 46.4167 and 44.6458 and 45.7708
PLpro-WT; 1.0 M PLP, time point 12
  fluorescence: 2329 and 2259 and 2313
  fluorescence normalised to probe only: 48.5208 and 47.0625 and 48.1875
PLpro-WT; 1.0 M PLP, time point 13
  fluorescence: 2450 and 2363 and 2423
  fluorescence normalised to probe only: 51.0417 and 49.2292 and 50.4792
PLpro-WT; 1.0 M PLP, time point 14
  fluorescence: 2548 and 2459 and 2512
